Several values for one entry are separate records, joined by “and”; a condition that tells them apart may be missing. Equal values may be shown once. Read-outs that look alike come from different tables or passages of the source.
Experiments:
[1] = Plasma and brain concentrations after single oral dose 45 mg/kg in mice; type: in vivo; details: TQS-168 45 mg/kg p.o.
Procedure: Mice were administered a single oral dose of 45 mg/kg TQS-168. TQS-168 was prepared at a concentration of 5.0 mg/mL as a solution in 10% polyethylene glycol (PEG) 400|130% Kleptose (Roquette) 60% water.
Concentrations in plasma and in brain were measured at various timepoints and various pharmacokinetic parameters were calculated, as shown below in Tables 4 and 5 and in FIGS. 19A and 19B.
TQS-168 was prepared as a 4.5 mg/ml solution in PEG400 10%| Kleptose 30% sterile water 60%. A single oral dose of 45 mg/kg was administered. Concentrations of TQS-621 were measured in plasma and brain over time.

[2] = Plasma concentrations of TQS-168 and TQS-621 after single oral dose 50 mg/kg in mice, three formulations; type: in vivo; details: mice plasma, TQS-168 50 mg/kg p.o.
Procedure: In a second experiment, mice were administered 50 mg/kg TQS-168 by oral gavage. For Group 1, TQS-168 was prepared at a concentration of 5.0 mg/mL in a suspension with […] in PBS. For Group 2, TQS-168 was prepared at a concentration of 5.0 mg/mL as a solution in 10 polyethylene glycol (PEG) 400|30 Kleptose (Roquete)|60% water.
Plasma exposures for Group 1 mice (ng/mL) are presented in Table 2 and for Group 2 mice in Table 3.
C57BL/6 male mice were administered a single dose of TQS-168 at 50 mg/kg using one of three formulations: Group 1-5.0 mg/ml suspension in 0.5% methylcellulose in PBS; Group 2-5.0 mg/ml solution in PEG400 (Fluka) 10%|Kleptose (Roquette) 30%|sterile water 60%; Group 3-5.0 mg/ml suspension in Labrafil M 1944 CS (Gattefosse) 30%|Masine CC (Gattefosse) 5%|Miglyol 812N 10%|sterile water 55%.
Plasma concentrations of TQS-168 and TQS-621 were measured overtime.

[3] = human, in vivo
[4] = mouse, po, mice brain, solution PEG 400/Kleptose/water
[5] = mouse, po, mice plasma, solution PEG 400/Kleptose/water
[6] = male, C57BL/6, mouse, plasma, po, 50 mg/kg, Group 1 (suspension, 0.5% methylcellulose in PBS), mean
[7] = male, C57BL/6, mouse, plasma, po, 50 mg/kg, Group 2 (solution, PEG400/Kleptose/water), individual mouse
[8] = male, C57BL/6, mouse, plasma, po, 50 mg/kg, Group 2 (solution, PEG400/Kleptose/water), mean
[9] = male, C57BL/6, mouse, plasma, po, 50 mg/kg, Group 3 (suspension, Labrafil/Masine/Miglyol/water), individual mouse
[10] = male, C57BL/6, mouse, plasma, po, 50 mg/kg, Group 3 (suspension, Labrafil/Masine/Miglyol/water), mean
[11] = Group 1 (suspension, 0.5% methylcellulose in PBS), individual mouse
[12] = Group 2 (solution, PEG400/Kleptose/water), individual mouse
[13] = Group 2 (solution, PEG400/Kleptose/water), mean
[14] = Group 3 (suspension, Labrafil/Masine/Miglyol/water), individual mouse

CC(C)(C)c1ccc(-c2nc3cc(O)ccc3[nH]2)cc1 [TQS-621]
AUClast Ratio (Metabolites/Parent) ([1]; mice brain, solution): 0.172 | Cmax Ratio (Metabolite/Parent) ([1]; mice brain, solution): 0.159 | AUCInf ([1]; mice brain, solution PEG 400/Kleptose/water): 4282 ng·h/g | AUClast ([1]; mice brain, solution PEG 400/Kleptose/water, last time point 24 hr): 4234 ng·h/g | Cmax [1, 4]: 678 ng/g | Tmax [1, 4]: 4 h | half-life [1, 4]: 291 min | AUC(0-inf) [1, 5]: 4310 ng·h/mL | Cmax [1, 5]: 692 ng/mL | Tmax [1, 5]: 4 h | AUC(0-t) ([1]; mouse, po, mice plasma, solution PEG 400/Kleptose/water, last time point 24 hr): 4280 ng·h/mL | Cmax ([2]; male, C57BL/6, mouse, plasma, po, 50 mg/kg, Group 1 (suspension, 0.5% methylcellulose in PBS), individual mouse, read-out: Cmax): 239 ng/mL | Tmax ([2]; male, C57BL/6, mouse, plasma, po, 50 mg/kg, Group 1 (suspension, 0.5% methylcellulose in PBS), individual mouse, read-out: tmax): 1 h | AUC(0-inf) [2, 6]: 8200 ng·h/mL | AUC(0-t) [2, 6]: 1590 ng·h/mL | half-life [2, 6]: 1700 min | Cmax ([2]; male, C57BL/6, mouse, plasma, po, 50 mg/kg, Group 1 (suspension, 0.5% methylcellulose in PBS), mean, read-out: Cmax): 235 ng/mL | Tmax ([2]; male, C57BL/6, mouse, plasma, po, 50 mg/kg, Group 1 (suspension, 0.5% methylcellulose in PBS), mean, read-out: tmax): 1.33 h | AUC(0-inf) [2, 7]: 3110 ng·h/mL | AUC(0-t) [2, 7]: 2880 ng·h/mL | half-life [2, 7]: 175 min | Cmax ([2]; male, C57BL/6, mouse, plasma, po, 50 mg/kg, Group 2 (solution, PEG400/Kleptose/water), individual mouse, read-out: Cmax): 487 ng/mL | Tmax ([2]; male, C57BL/6, mouse, plasma, po, 50 mg/kg, Group 2 (solution, PEG400/Kleptose/water), individual mouse, read-out: tmax): 2 h | AUC(0-inf) [2, 8]: 2960 ng·h/mL | AUC(0-t) [2, 8]: 2750 ng·h/mL | half-life [2, 8]: 174 min | Cmax ([2]; male, C57BL/6, mouse, plasma, po, 50 mg/kg, Group 2 (solution, PEG400/Kleptose/water), mean, read-out: Cmax): 449 ng/mL | Tmax ([2]; male, C57BL/6, mouse, plasma, po, 50 mg/kg, Group 2 (solution, PEG400/Kleptose/water), mean, read-out: tmax): 1.67 h | AUC(0-inf) [2, 9]: 612 ng·h/mL | AUC(0-t) [2, 9]: 564 ng·h/mL | Cmax ([2]; male, C57BL/6, mouse, plasma, po, 50 mg/kg, Group 3 (suspension, Labrafil/Masine/Miglyol/water), individual mouse, read-out: Cmax): 98.9 ng/mL | AUC(0-inf) [2, 10]: 584 ng·h/mL | AUC(0-t) [2, 10]: 533 ng·h/mL | half-life [2, 10]: 155 min | Cmax ([2]; male, C57BL/6, mouse, plasma, po, 50 mg/kg, Group 3 (suspension, Labrafil/Masine/Miglyol/water), mean, read-out: Cmax): 92 ng/mL | Tmax ([2]; male, C57BL/6, mouse, plasma, po, 50 mg/kg, Group 3 (suspension, Labrafil/Masine/Miglyol/water), mean, read-out: tmax): 3.33 h | AUCInf [2, 11]: 1163 ng·h/mL and 22064 ng·h/mL and 1379 ng·h/mL | AUClast [2, 11]: 1148 ng·h/mL and 2355 ng·h/mL and 1267 ng·h/mL | Cmax [2, 11]: 309 ng/mL and 156 ng/mL | t1/2 [2, 11]: 1.88 h and 80.8 h and 2.08 h | AUCInf [2, 12]: 2962 ng·h/mL and 2817 ng·h/mL | AUClast [2, 12]: 2862 ng·h/mL and 2513 ng·h/mL | Cmax [2, 12]: 483 ng/mL and 378 ng/mL | t1/2 [2, 12]: 2.17 h and 3.61 h | AUClast Ratio (Metabolite/Parent) [2, 13]: 0.256 | Cmax Ratio (Metabolite/Parent) [2, 13]: 0.211 | AUCInf [2, 14]: 621 ng·h/mL and 519 ng·h/mL | AUClast [2, 14]: 532 ng·h/mL and 504 ng·h/mL | Cmax [2, 14]: 117 ng/mL and 58.7 ng/mL | Tmax [2, 14]: 8 h | t1/2 [2, 14]: 3.43 h and 2.93 h and 1.38 h | MPR AUC(0-inf) ([3]; po, 60 mg): 5.63 | MPR Cmax ([3]; po, 60 mg): 2.44 | MPR AUC(0-inf) ([3]; po, 90 mg): 6.16 | MPR Cmax ([3]; po, 90 mg): 1.93 | MPR AUC(0-inf) ([3]; po, 270 mg): 5.92 | MPR Cmax ([3]; po, 270 mg): 2.62 | MPR AUC(0-inf) ([3]; po, 540 mg): 7.91 | MPR Cmax ([3]; po, 540 mg): 3.43 | Frel AUC(0-inf) ([3]; male, 180 mg): 63.6% | Frel AUC(0-last) ([3]; male, 180 mg): 63.5% | Frel Cmax ([3]; male, 180 mg): 64.9% | AUC(0-24) ([3]; male, po, 60 mg): 383 ng·h/mL | AUC(0-inf) ([3]; male, po, 60 mg): 410 ng·h/mL | Cmax ([3]; male, po, 60 mg): 65.3 ng/mL | T1/2 ([3]; male, po, 60 mg): 4.89 h | Tmax ([3]; male, po, 60 mg): 2.50 h | AUC(0-24) ([3]; male, po, 90 mg): 1170 ng·h/mL | AUC(0-inf) ([3]; male, po, 90 mg): 1200 ng·h/mL | AUC(0-last) ([3]; male, po, 90 mg): 1190 ng·h/mL | Cmax ([3]; male, po, 90 mg): 214 ng/mL | T1/2 ([3]; male, po, 90 mg): 4.79 h | Tmax ([3]; male, po, 90 mg): 1.25 h | AUC(0-24) ([3]; male, po, 270 mg): 4250 ng·h/mL | AUC(0-inf) ([3]; male, po, 270 mg): 4950 ng·h/mL | Cmax ([3]; male, po, 270 mg): 621 ng/mL | T1/2 ([3]; male, po, 270 mg): 10.4 h | Tmax ([3]; male, po, 270 mg): 2.00 h | AUC(0-24) ([3]; male, po, 540 mg): 10800 ng·h/mL | AUC(0-inf) ([3]; male, po, 540 mg): 12700 ng·h/mL | Cmax ([3]; male, po, 540 mg): 1110 ng/mL | T1/2 ([3]; male, po, 540 mg): 11.3 h | Tmax ([3]; male, po, 540 mg): 4.00 h

From patent US20250281462A1, “THERAPEUTICALLY EFFECTIVE ORAL ADMINISTRATION OF A 2 ARYLBENZIMIDAZOLE” (Tranquis Therapeutics, Inc., priority 2021, published 2025)
